This note sets out measurements from patent US20200222400A1, “METHODS FOR THE TREATMENT OF NEUROLOGICAL DISORDERS” (Yumanity Therapeutics, Inc., priority 2019, published 2020).

The target of one experiment is T1, yeast OLE1 (Saccharomyces cerevisiae, UniProt P21147).
T1 construct: expressed in transfected cells; host or cells: S. cerevisiae ole1Δ strain (W303 pdr1Δ pdr3Δ background), pRS316 plasmid, TDH3 promoter
T1 sequence (P21147 1-510): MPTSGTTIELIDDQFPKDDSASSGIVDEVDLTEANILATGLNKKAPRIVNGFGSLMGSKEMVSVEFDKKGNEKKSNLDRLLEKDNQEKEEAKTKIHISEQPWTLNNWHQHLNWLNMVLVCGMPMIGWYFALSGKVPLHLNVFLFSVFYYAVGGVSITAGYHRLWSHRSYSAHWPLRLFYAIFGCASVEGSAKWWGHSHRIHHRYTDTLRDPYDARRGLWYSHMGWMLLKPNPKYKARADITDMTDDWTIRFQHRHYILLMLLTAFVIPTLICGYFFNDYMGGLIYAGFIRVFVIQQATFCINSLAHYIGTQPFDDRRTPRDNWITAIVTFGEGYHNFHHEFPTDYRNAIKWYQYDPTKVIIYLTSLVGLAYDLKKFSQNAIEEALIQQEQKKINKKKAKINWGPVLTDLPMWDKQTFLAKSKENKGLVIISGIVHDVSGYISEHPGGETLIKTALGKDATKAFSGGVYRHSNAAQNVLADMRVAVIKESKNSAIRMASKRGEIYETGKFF
Description: Growth of yeast surviving solely on yeast OLE1. Format: cell-based. The note with it: percent of DMSO-treated condition. The source says:
(§1) To generate yeast strains expressing SCD1 or SCD5 as the sole desaturase, the human SCD1 and SCD5 genes were cloned from cDNAs (Harvard PlasmID database Clone ID HsCD00340237 for SCD1 and HsCD00342695 for SCD5) into yeast plasmid pRS316 (ATCC 77145) between the yeast TDH3 promoter and the CYC1 terminator. The coding sequence of yeast OLE1 was also cloned into this plasmid). These clones were then transformed into the ole1Δ strain and plated on CSM-Ura media (CSM lacking uracil) with 2% glucose (w/v) and independent colonies were isolated and amplified.
(§2) All compound profiling experiments were performed using the same basic protocol. Different genetic backgrounds (e.g., gene deletions) or conditions (e.g., addition of oleic and palmitoleic acid) were replaced as indicated below.
(§3) Compound stocks (10 mM in 100% DMSO) were arrayed into 384 round well, v-bottom polypropylene plates and diluted according to indicated dilution factors. Compound administration was performed in two separate steps. First, 15 μL of CSM-Galactose (induces expression of toxic protein) was dispensed into clear 384 well assay plates using a MULTIDROP™ Combi reagent dispenser. The diluted compound stock plates were then applied to the assay plates using an automated workstation (Perkin Elmer JANUS™) outfitted with a 384 pin tool containing slotted pins that deliver 100 nL of compound. The cultures described above were then diluted to a 2× concentration (0.03 and 0.08 for alpha-synuclein and ApoE, final OD600 of 0.015 and 0.04) in CSM-Galactose. For wild-type and Ole1/SCD1/SCD5 plasmid-containing strains, the 2× cell density was 0.02. In all experiments, 15 μL culture was then dispensed into the pinned assay plate to achieve 30 μL of the 1×OD600 culture and a top drug concentration of […]. For 96-well assays (FIGS. 2A and 2B), compound dilutions in DMSO were generated in 96 well plates and 1 μL was manually pipetted into 96 well clear bottom assay plates.
(§4) For experiments using a plasmid-borne copy of Ole1, SCD1, or SCD5 (FIGS. 4B, 7, and 8), media lacking uracil (SX-Ura, where X is glucose, raffinose, or galactose), was used for all steps of the compound profiling protocol to ensure its maintenance throughout the assay.
(§5) After yeast delivery, assay plates were incubated under humidified conditions at 30° C. for 24 to 40 h. ApoE4 rescue experiments were stopped at 24 h, aSyn experiments at 40 h, Ole1 at 24 h, and SCD1/SCD5 at 40 h. The growth of yeast was monitored by reading the OD600 of each well using a microplate reader (Perkin Elmer EnVision™). For model rescue experiments, raw data were processed by background subtracting and calculating a fold-change relative to DMSO control [(EXP−0.035)/(DMSO−0.035)—where 0.035 is the OD600 contributed by an empty well containing 30 μL of media alone]. For growth inhibition of wild-type cells, raw data were processed by background subtracting and converting values to a percent of the nontreated condition for that strain [(EXP−0.035)/(DMSO−0.035)×100%].

Another experiment addresses T2, human SCD5 (Homo sapiens, UniProt Q86SK9).
T2 construct: host or cells: S. cerevisiae ole1Δ strain (W303 pdr1Δ pdr3Δ background), pRS316 plasmid, TDH3 promoter
T2 sequence (Q86SK9 1-330): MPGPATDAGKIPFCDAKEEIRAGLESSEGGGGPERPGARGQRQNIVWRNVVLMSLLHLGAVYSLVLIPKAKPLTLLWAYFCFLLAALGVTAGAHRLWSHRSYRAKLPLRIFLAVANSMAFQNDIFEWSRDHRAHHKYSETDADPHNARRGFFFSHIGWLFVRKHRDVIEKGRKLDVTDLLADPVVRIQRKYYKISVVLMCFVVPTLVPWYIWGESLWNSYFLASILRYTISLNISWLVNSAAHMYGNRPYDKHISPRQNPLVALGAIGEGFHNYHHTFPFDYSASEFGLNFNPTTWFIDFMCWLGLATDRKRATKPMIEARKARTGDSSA
Description: Growth of humanized yeast expressing human SCD5 as sole desaturase. Format: cell-based, Saccharomyces cerevisiae expressing Saccharomyces cerevisiae expressing Saccharomyces cerevisiae expressing Saccharomyces cerevisiae expressing Saccharomyces cerevisiae expressing human SCD5 SCD5 SCD5 SCD5 SCD5. As to conditions: yeast growth.
Source text: as §1, §2, §3, §4, §5

Experiment [1] concerns A53T α-synuclein transfected human iPSC-derived neurons. Description: Neuron survival assay, A53T α-synuclein transfected human iPSC-derived neurons. The note with it: all tested concentrations, 3 μM to 0.3 μM, relative to DMSO. It counts as cell-based. How it is done: Transfected neuronal cultures were imaged at 12-24 h intervals for the indicated number of days by robotic microscopy. Fluorescence images were acquired with a Nikon Eclipse Ti microscope equipped with a motorized stage, 20× extra-long working distance (ELWD) objective, and an Andor Zyla cMOS camera. During image acquisition, microplates were enclosed in an on-stage environmental chamber controlling temperature, CO2, and humidity (Okolab). Images were processed and analyzed with custom-made scripts in R and ImageJ software. The lifetimes of individual neurons were determined by tracking fluorescently-labeled neurons in ImageJ. Neuronal death was determined to occur upon incidence of RFP signal loss or rupture of cell body. Cox proportional hazards analysis was used to generate cumulative hazard plots and determine the risk of neuron death. Log-rank test was used to determine statistical significance of survival curve divergence between neuron cohorts.
A model of α-synuclein toxicity utilizing transient transfection into human iPSC-derived neurons was developed. […] This model was utilized to evaluate the role of SCD in α-synuclein-dependent neuronal toxicity. Human iPSC-derived neurons were transfected with a construct encoding A53T α-synuclein or an empty vector control. […]

Take `Cc1nnc(-c2ccc(N3CCC(Oc4cc(F)ccc4Cl)CC3)nn2)o1` [CAY10566]: at yeast OLE1, the “growth inhibition of yeast expressing OLE1” value is “resistant”. Moreover, the “half-maximal inhibitory concentration (IC50), SCD5 humanized strain” value at human SCD5 was “low nanomolar”. Further, the “risk of neuron death” value in experiment [1] is listed as “significantly reduced”.
